Laboratory results published in paper PMC9518609, “Design and synthesis of new trimethoxylphenyl-linked combretastatin analogues loaded on diamond nanoparticles as a panel for ameliorated solubility and antiproliferative activity” (Journal of Enzyme Inhibition and Medicinal Chemistry, 2022).

Legend:
Type in all cases: cell-based
[1] = tested on: Bcl-2; experiment: ELISA measurement of Bcl-2 level in MDA-MB-231 cells; conditions: MDA-MB-231, at IC50, 24 h
From the text: (§1) p53, Bax, and Bcl-2 are key regulators of the apoptosis process to keep the balance between viable and dead normal cells. Deregulation of these proteins is a common feature responsible for uncontrolled cancer cell growth. In this test, the protein expression of apoptotic regulators was examined using ELISA analysis. […]
(§2) p53, Bax, and Bcl2 enzyme activities in MDA-MB-231 cells were investigated in the presence of compounds 6 and 12 at their IC50 concentration (µM). The levels of the tumour suppressor gene p53, apoptotic markers Bax as well as the anti-apoptotic marker Bcl-2 were assessed using the p53 ELISA kit, Human Bax ELISA kit, and Bcl-2 Elisa kit. The procedure of the used kits was done according to the manufacturer's instructions and was conducted as reported earlier. […]
(§3) 4.3.4.2. Effect on p53, Bax and Bcl-2 p53, Bax and Bcl2 enzyme activities in MDA-MB-231 cells were detected in the presence of compounds 6 and 12 at their IC50 concentration (µM). The levels of the tumor suppressor gene p53, apoptotic markers Bax as well as the anti-apoptotic marker Bcl-2 were assessed using p53 ELISA kit, Human Bax ELISA kit and Bcl-2 Elisa kit. The procedure of the used kits was done according to the manufacturer's instructions. […] The samples were measured at 450 nm in ROBONEK P2000 ELISA reader. […]

[2] = tested on: caspase 3/7; experiment: Caspase 3/7 green flow cytometry assay in MDA-MB-231 cells; conditions: MDA-MB-231, at IC50, 24 h
From the text: Further, it is important to check effector caspase 3/7. The cleavage of caspases is specifically responsible for programmed cell death and apoptosis. […] The results were shown in Figure 5 and the expression level of caspase 3/7 was increased when compared with no control cells.
Caspase 3/7 in MDA-MB-231 cells was detected using CellEvent® Caspase 3/7 Green Detection Flow Cytometry Assay Kit. Caspase 3/7 activity in the MDA-MB-231 cell line was detected in the presence of compounds 6 and 12 at their IC50 concentration (µM) using CellEvent® caspase 3/7 green detection flow cytometry assay kit according to the manufacturer’s directions. All experimental steps were conducted as reported earlier.
4.3.4.3. Caspase 3/7 assay for compounds 6 and 12
Caspase 3/7 in MDA-MB-231 cells was investigated using CellEvent® Caspase 3/7 Green Detection Flow Cytometry Assay Kit. Caspase 3/7 activity in MDA-MB-231 cell line was detected in the presence of compounds 6 and 12 at their IC50 concentration (µM) using CellEvent® caspase 3/7 green detection flow cytometry assay kit according to manufacturer’s directions. […] cells at a density of 2.5 × 10^5 per well were harvested and washed with ice cold PBS, and cell lysates were prepared and combined with reaction buffer and incubated with specific colorimetric substrates (Caspase 3/7 Detection Reagent) at 37 °C for 6 h. Detection reagent is composed of DNA binding dye conjugated to caspase 3 and caspase 7 recognition sequence (DEVD) by a short peptide linker. The released DNA binding dye binds DNA producing a bright and stable signal. Finally, the samples were analyzed at 488 nm in a BD FACS Calibur flow cytometer. All experiments were performed in triplicates.
Information Classification: General 4

[3] = tested on: MDA-MB-231 cells; experiment: Cell cycle analysis by DNA flow cytometry; conditions: MDA-MB-231, at IC50, 24 h; for %Pre-G1 (pre-G1 apoptosis): untreated control 1.99%; for %DIP G2/M (cells in G2/M phase): untreated control 5.64%
Procedure: Targeting the cell cycle division at distinct checkpoints of cancer cells has been identified as a promising strategy for cancer chemotherapy.
Cell cycle analysis in MDA-MB-231 cells was investigated using a fluorescent Annexin V-FITC/PI detection kit (BioVision EZCell™ Cell Cycle Analysis Kit Catalog #K920) by flow cytometry assay. All experimental steps were performed as reported earlier.
4.3.3. Cell cycle analysis of compound 6 and 12
Cell cycle analysis in MDA-MB-231 cells was investigated using fluorescent Annexin V-FITC/ PI detection kit (BioVision EZCellTM Cell Cycle Analysis Kit Catalog #K920) by flow cytometry assay. MDA-MB-231 cells at a density of 2 × 10^5 per well were harvested and washed twice in PBS. After that, the cells were incubated at 37 °C and 5% CO2. The […]
washed twice in PBS, fixed with 70% ethanol, rinsed again with PBS. Afterward, medium was stained with DNA fluorochrome PI for 15 min at 37 °C. […]
All experiments were done in triplicates. […]

[4] = tested on: MDA-MB-231; experiment: MTT cytotoxic activity against breast MDA-MB-231 cancer cell line; conditions: MTT assay, 24 h treatment
From the text: All the synthesised compounds were screened for their cytotoxic activity against breast MDA-MB-231 cancer cell line and compounds 6 and 12 against breast MCF-10A cell line taking CA-4 as a positive control for the analysis. The in vitro cytotoxicity results of the prepared compounds were systematised in Table 1. […] Structurally, the prepared molecules contain three structural variations; including rotatable hydrazide derivatives, the core exchange with imidazolone ring, and the ring expansion with triazinone motif. […] It is noticed that directly attached benzene ring to triazinone scaffold (compound 6) or bioisosteric group (thiazolyl ester) as in compound 12, may contribute to the astonishing cytotoxicity against breast MDA-MB-231 cancer cells.
To measure the cytotoxic activity of the synthesised derivatives 2a–13e in breast cancer (MDA-MB-231) cell line. MTT assay method was applied to assess cell viability assay. All experimental steps were conducted as reported earlier.
Part I: Biological Studies
4.3. Biological evaluation
4.3.1. Cytotoxic activity evaluation
The cytotoxic actvity of the synthesized derivatives 2a-13e was measured in MDA-MB-231 breast cancer cell line and derivatives 6 and 12 in MCF-10A […].
Cell viability assay was assessed using MTT assay method. Cells at density of 1 x 104 were seeded in a 96-well plate at 37 °C for 24 h under 5% CO2. After incubation, the cells were treated with different concentrations of the test schiff bases 2a-13e and incubated for 24 h, then 20 µl of MTT solution at 5 mg/mL was applied and incubated for 4 h at 37 °C.
Dimethyl sulphoxide (DMSO) in volume of 100 µl was added to each well to dissolve the purple formazan that had formed. The color intensity of the formazan product, which represents the growth condition of the cells, is quantified by using an ELISA plate reader (EXL 800, USA) at 570 nm absorbance. The experimental conditions were carried out with at least three replicates, and the experiments were repeated at least three times. […]

[5] = tested on: p53; experiment: ELISA measurement of p53 level in MDA-MB-231 cells; conditions: MDA-MB-231, at IC50, 24 h
From the text: as §1, §2, §3

Row | Compound | Bcl-2 level decrease compared with no treatment control [1] [fold] | Casp3/7 (percentage of activated caspase 3/7) [2] [%] | increase in caspase 3/7 activation relative to untreated control [2] | %Pre-G1 (pre-G1 apoptosis) [3] [%] | %DIP G2/M (cells in G2/M phase) [3] [%] | IC50 ([4]; Homo sapiens, MDA-MB-231) [nM] | p53 level increase, fold change compared with no treatment control [5] [fold] | IC50 [4] [nM]
1 | COc1cc(C=C2N=C(c3cc(OC)c(OC)c(OC)c3)N(c3ccccc3)NC2=O)cc(OC)c1OC [Compound 6, 2-phenyl-5-(3,4,5-trimethoxybenzylidene)-3-(3,4,5-trimethoxyphenyl)-1,2-dihydro-1,2,4-triazin-6(5H)-one] | 6.49 | 12.87 | about 15.70 fold | 43.50 | 35.09 | 1360 ± 100 | 11.96 | 
2 | ethyl 2-(2-(6-oxo-5-(3,4,5-trimethoxybenzylidene)-3–(3,4,5-trimethoxyphenyl)-5,6-dihydro-1,2,4-triazin-2(1H)-yl)thiazol-4-yl)acetate [Compound 12] | 2.96 | 7.51 | ~9.16 fold | 29.81 | 26.75 |  | 5.20 | 1710 ± 110
